# Laboratory results as given in patent US20260272878A1, “ADAR1 INHIBITORS AND USES THEREOF” (THE WISTAR INSTITUTE OF ANATOMY AND BIOLOGY, priority 2023, published 2026).
# “Also recorded” adds a separate entry of the source.
# What was measured:
# [1] = system: HeLa non-ALT cancer cells; assay: Cancer cell killing / viability (Apo Tox-Glo), HeLa; format: cell-based, human; details: for Killing of HeLa cells: result in words
# Method: (§1) FIGS. 8A-8C show analysis of ADAR1i-124 effects in cancer cells. […] Viability was examined using the Apo Tox-Glo assay system. Control, 0.3% DMSO. Data: mean±SD (n=3). Significant differences identified by two-tailed Student's t-tests: *P<0.05, n.s., not significant. (FIG. 8B) Western blotting analysis of HeLa cells treated with ADAR1i-124 (10 μM).
# FIGS. 9A-9C show dose-dependent killing of cancer cells and activation of IFN signaling. […] YUMM1.7 (FIG. 9B) and HGS2 cells (FIG. 9C) were treated with ADAR1i-124 at 10 μM (12 hrs). RNA samples were analyzed by qRT-PCR to monitor ISG expression levels. Data: mean±SD (n=3). Significant differences were identified by two-tailed Student's t-tests: ***P<0.001.
# (§2) Dose-dependent selective killing of telomerase reactivated cancer cells was determined (FIG. 9A).
# HeLa cells = assay: Western blotting of treated HeLa cells (DNA damage, M phase arrest, apoptosis); format: cell-based, human; details: 10 μM for ADAR1i-124
# Method: as §1, §2
# ADAR1p150 = biological target: T1, ADAR1p150 (Homo sapiens, UniProt P55265); assay: In vitro editing assay, ADAR1p150; format: biochemical; details: for IC50: ADAR1p150 (not shown)
# T1 sequence (P55265 1-1226): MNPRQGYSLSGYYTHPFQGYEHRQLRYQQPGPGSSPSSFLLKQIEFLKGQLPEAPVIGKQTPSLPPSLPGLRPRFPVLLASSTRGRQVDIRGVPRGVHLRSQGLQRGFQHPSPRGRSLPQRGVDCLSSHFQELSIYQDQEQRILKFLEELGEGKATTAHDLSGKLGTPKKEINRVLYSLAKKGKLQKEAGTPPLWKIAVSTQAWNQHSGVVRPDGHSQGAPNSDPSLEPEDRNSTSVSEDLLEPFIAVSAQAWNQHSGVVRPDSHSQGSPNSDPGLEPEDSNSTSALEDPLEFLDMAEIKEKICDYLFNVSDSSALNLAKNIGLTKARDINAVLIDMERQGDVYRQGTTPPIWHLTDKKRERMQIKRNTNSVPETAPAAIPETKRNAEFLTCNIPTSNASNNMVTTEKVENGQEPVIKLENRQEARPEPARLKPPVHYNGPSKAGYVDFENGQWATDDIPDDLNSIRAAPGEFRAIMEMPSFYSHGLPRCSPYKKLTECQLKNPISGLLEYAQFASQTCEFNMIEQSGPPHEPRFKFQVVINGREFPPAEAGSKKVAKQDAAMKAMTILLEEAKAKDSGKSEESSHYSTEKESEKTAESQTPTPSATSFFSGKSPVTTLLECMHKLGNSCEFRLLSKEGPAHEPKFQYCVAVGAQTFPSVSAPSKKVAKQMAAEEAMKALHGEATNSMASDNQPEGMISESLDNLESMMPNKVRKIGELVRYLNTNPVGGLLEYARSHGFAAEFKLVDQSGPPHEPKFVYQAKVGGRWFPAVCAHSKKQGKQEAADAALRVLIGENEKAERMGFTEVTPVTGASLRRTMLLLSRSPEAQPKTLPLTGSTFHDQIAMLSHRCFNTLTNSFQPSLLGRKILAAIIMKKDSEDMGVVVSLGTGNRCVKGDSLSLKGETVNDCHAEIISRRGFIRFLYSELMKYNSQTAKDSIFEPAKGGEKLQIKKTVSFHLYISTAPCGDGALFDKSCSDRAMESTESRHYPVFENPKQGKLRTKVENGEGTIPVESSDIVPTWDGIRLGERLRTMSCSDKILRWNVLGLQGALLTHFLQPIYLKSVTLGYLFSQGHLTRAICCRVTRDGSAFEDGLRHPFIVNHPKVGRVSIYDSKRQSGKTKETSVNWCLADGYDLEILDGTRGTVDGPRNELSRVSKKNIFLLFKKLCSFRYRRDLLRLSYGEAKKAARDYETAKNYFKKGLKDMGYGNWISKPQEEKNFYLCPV
# Method: The in vitro editing reaction mixture, containing 5 nM of telomere RNA:RNA duplex substrates and 75 nM of HAT-ADAR1p110-WT, FLAG-ADAR1p110-WT, or HA-ADAR1p110-EAA protein, was incubated at 37° C. for 2 h in in vitro editing buffer I (20 mM HEPES-KOH PH 7.5, 100 mM NaCl, 0.01% NP-40, 5% glycerol, 1 mM DTT). For editing of RNA:DNA hybrid substrates, in vitro editing buffer II (20 mM HEPES-KOH PH 7.5, 20 mM NaCl, 0.01% NP-40, 5% glycerol, 1 mM DTT) was used. Edited RNA or DNA strands were purified using Dynabeads MyOne Streptavidin C1 (Thermo Fisher Scientific). To remove opposite RNA or DNA strands, rNase H (NEB) or TURBO dNase (Thermo Fisher Scientific) was used, respectively. For sequencing of edited substrates, reverse transcription-PCR was carried out for RNA strands, while PCR was carried out for DNA strands. RT reactions were carried out using SuperScript III Reverse Transcriptase (Thermo Fisher Scientific), and PCR reactions were performed using Platinum Taq DNA polymerase (Thermo Fisher Scientific). PCR products were sequenced using a specific sequencing primer, and the ratio of A and G peaks in the chromatograms were analyzed by CodonCode Aligner (CodonCode Corporation).
# Seven additional analogs of ADAR1i-13 (FIG. 5A) were synthesized to determine structural characteristics required for ADAR1 editing inhibitory activity. […] In vitro editing IC50 values of ADAR1i-13, ADAR1i-120, and ADAR1i-124 (FIG. 5A) were similar, in the ~10-20 μM range, for both ADAR1p110 (FIG. 5A) and ADAR1p150 (not shown).
Compound,Killing of HeLa cells [1],"DNA damage, M phase arrest and apoptosis markers (HeLa cells)",IC50 (ADAR1p150),"Viability of HeLa cells ([1]; 10 μM, Apo Tox-Glo, control 0.3% DMSO)","IC50 ([1]; Homo sapiens, HeLa, read-out: IC50 for selective killing of HeLa cells)",Inhibition of ADAR1p150 (ADAR1p150; result in words)
"N#Cc1ccc(NC(=O)c2sc3ccccc3c2Cl)cc1 [ADAR1i-13, 3-chloro-N-(4-cyanophenyl)-1-benzothiophene-2-carboxamide]",killed selectively,"induced DNA damage, M phase arrest, and apoptosis",10 to 20 µM,–,–,–
N#Cc1ccccc1NC(=O)c1sc2ccccc2c1Cl [ADAR1i-120],killed selectively,"induced DNA damage, M phase arrest, and apoptosis",10 to 20 µM,–,–,–
N#Cc1ccc(NC(=O)c2c(Cl)c3ccccc3n2CO)cc1 [ADAR1i-124],killed selectively; also recorded: dose-dependently killed,"induced DNA damage, M phase arrest, and apoptosis; also recorded: upregulated g-H2AX, Histone 3 phosphorylated at Serine 10, and cleaved PARP bands",10 to 20 µM,selectively reduced viability,~0.4 µM,inhibited both ADAR1p150 and ADAR1p-110
